From patent US20240228501A1, “IMIDAZOLE-CONTAINING CONDENSED RING DERIVATIVE, PREPARATION METHOD THEREFOR, AND APPLICATION THEREOF IN MEDICINE” (CHANGCHUN GENESCIENCE PHARMACEUTICAL CO., LTD., priority 2021, published 2024)

Biological target: T1, human NK-3 receptor (Homo sapiens, UniProt P29371)
T1 construct: expressed in transfected cells; host or cells: HEK293
T1 sequence (P29371 1-465): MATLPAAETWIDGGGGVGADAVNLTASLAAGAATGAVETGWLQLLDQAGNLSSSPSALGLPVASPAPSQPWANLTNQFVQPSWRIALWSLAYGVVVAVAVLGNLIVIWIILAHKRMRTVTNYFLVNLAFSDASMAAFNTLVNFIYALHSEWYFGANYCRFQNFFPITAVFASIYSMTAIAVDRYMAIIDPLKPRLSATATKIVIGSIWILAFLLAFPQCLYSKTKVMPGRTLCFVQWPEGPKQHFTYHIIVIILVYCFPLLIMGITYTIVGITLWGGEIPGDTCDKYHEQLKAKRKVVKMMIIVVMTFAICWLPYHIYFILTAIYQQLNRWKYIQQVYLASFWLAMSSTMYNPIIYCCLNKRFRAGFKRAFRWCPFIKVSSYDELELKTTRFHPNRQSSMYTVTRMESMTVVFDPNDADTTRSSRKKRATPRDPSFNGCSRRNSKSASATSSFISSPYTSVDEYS
Assay: Antagonistic activity on human NK-3 receptor in human NK-3R/HEK293 stably transfected cells (Fluo-4, FLIPR, Neurokinin B as agonist)
Assay type: cell-based
Conditions: human NK-3R/HEK293 cells
Description: Test Example 1: Determination of Activity of Compounds of the Present Invention on Human NK-3 Receptor
This method is used to determine antagonistic effects of the compounds of the present invention on the activity of human NK-3 receptor proteins expressed in cell lines stably transfected with human NK-3R/HEK293.
2.1 The cell lines stably transfected with human NK-3R/HEK293 were inoculated in a 384-well cell culture plate at a inoculation density of 12,000 cells/well/25 μL, and cultured at 37° C. and 5% CO2 overnight;
2.2 20× Component A was frozen and thawed to room temperature, diluted 2× with Assay Buffer to working concentration, and kept at room temperature for later use;
2.3 The cell culture plate was equilibrated at room temperature for 10 min, the culture medium was removed, and 20 μL of Assay Buffer and 20 μL of 2× Component A […] were added, followed by centrifugation at 200 g at room temperature for 3-5 sec, and incubation at 37° C. for 2 h;
2.4 The compound was diluted 3 times with DMSO in 384 PP_DMSO plate, and then 240 nl/well of the compound was transferred into a working plate with Echo 550, centrifugated at 200 g at room temperature for 1 min; 40 μl of Assay Buffer was added into the working plate, centrifugated at 200 g at room temperature for 1 min, and then fully mixed in an oscillator at 2500 rpm for 20 min, and then centrifugated at 200 g at room temperature for 1 min for later use;
2.5 2.5 nM Neurokinin B TFA (6×) was prepared from Assay Buffer, 50 uL of which was transferred onto 3657 plate for later use;
2.6 The cell culture plate was taken out and left to stand at room temperature for 10 min, then […] the compound diluted in step 2.4 was added into corresponding wells, and the cell culture plate was left to stand at 25° C. for 30 min; and
2.7 10 μL of the compound diluted in step 2.5 was added into the corresponding experimental wells with FLIPR Tetra, and data was collected.
The antagonistic activity of the compounds of the present invention on the human NK-3 receptor was determined through the above experiments, to obtain inhibition curves of the compounds of the present invention and determine concentrations (IC50) of the corresponding compounds that inhibit 50% of the reference agonist.

IC50 [nM]	SMILES
29.7	Cc1nsc(-c2nc(-c3ccncn3)c3n2CCN(C(=O)c2ccc(F)cc2)[C@@H]3C)n1 [Compound 027, (R)-(4-fluorophenyl)(8-methyl-3-(3-methyl-1,2,4-thiadiazol-5-yl)-1-(pyrimidin-4-yl)-5,6-dihydroimidazo[1,5-a]pyrazin-7 (8H)-yl)methanone]
28.7	Cc1nsc(-c2nc(N3CCOCCC3=O)c3n2CCN(C(=O)c2ccc(F)cc2)[C@@H]3C)n1 [Compound 114, (R)-1-[7-(4-fluorobenzoyl)-8-methyl-3-(3-methyl-1,2,4-thiadiazol-5-yl)-5,6,7,8-tetrahydroimidazo[1,5-a]pyrazin-1-yl]-1,4-azepan-5-one]
51.7	Cc1nsc(-c2nc(NS(C)(=O)=O)c3n2CCN(C(=O)c2ccc(F)cc2)[C@@H]3C)n1 [Compound 040, (R)—N-(7-(4-fluorobenzoyl)-8-methyl-3-(3-methyl-1,2,4-thiadiazol-5-yl)-5,6,7,8-tetrahydroimidazo[1,5-a]pyrazin-1-yl)methanesulfonamide]
31	Cc1nsc(-c2nc(N3C[C@@H](O)CC3=O)c3n2CCN(C(=O)c2ccc(F)cc2)[C@@H]3C)n1 [Compound 104, (S)-1-((R)-7-(4-fluorobenzoyl)-8-methyl-3-(3-methyl-1,2,4-thiadiazol-5-yl)-5,6,7,8-tetrahydroimidazo[1,5-a]pyrazin-1-yl)-4-hydroxypyrrolidin-2-one]
47.6	Cc1nsc(-c2nc(-c3c(F)cccc3F)c3n2CCN(C(=O)c2ccc(F)cc2)[C@@H]3C)n1 [Compound 063, (R)-(1-(2,6-difluorophenyl)-8-methyl-3-(3-methyl-1,2,4-thiadiazol-5-yl)-5,6-dihydroimidazo[1,5-a]pyrazin-7 (8H)-yl)(4-fluorophenyl)methanone]
46.5	C[C@@H]1c2c(N3CCCC3=O)nc(-c3nc(CF)ns3)n2CCN1C(=O)c1ccc(F)cc1 [Compound 184, (R)-1-(7-(4-fluorobenzoyl)-3-(3-(fluoromethyl)-1,2,4-thiadiazol-5-yl)-8-methyl-5,6,7,8-tetrahydroimidazo[1,5-a]pyrazin-1-yl)pyrrolidin-2-one]
23	Cc1nsc(-c2nc(N3CCNCC3=O)c3n2CCN(C(=O)c2ccc(F)cc2)[C@@H]3C)n1 [Compound 123, (R)-1-(7-(4-fluorobenzoyl)-8-methyl-3-(3-methyl-1,2,4-thiadiazol-5-yl)-5,6,7,8-tetrahydroimidazo[1,5-a]pyrazin-1-yl)piperazin-2-one]
20.2	Cc1nsc(-c2nc(N3CCOC3=O)c3n2CCN(C(=O)c2ccc(F)cc2)[C@@H]3C)n1 [Compound 101, (R)-3-(7-(4-fluorobenzoyl)-8-methyl-3-(3-methyl-1,2,4-thiadiazol-5-yl)-5,6,7,8-tetrahydroimidazo[1,5-a]pyrazin-1-yl)oxazolidin-2-one]
7.43	Cc1nsc(-c2nc(N3CCCCC3=O)c3n2CCN(C(=O)c2ccc(F)cc2)[C@@H]3C)n1 [Compound 069, (R)-1-(7-(4-fluorobenzoyl)-8-methyl-3-(3-methyl-1,2,4-thiadiazol-5-yl)-5,6,7,8-tetrahydroimidazo[1,5-a]pyrazin-1-yl)piperidin-2-one]
18.6	CC(=O)O[C@@H]1CC(=O)N(c2nc(-c3nc(C)ns3)n3c2[C@@H](C)N(C(=O)c2ccc(F)cc2)CC3)C1 [Compound 133, (R)-1-[(R)-7-(4-fluorobenzoyl)-8-methyl-3-(3-methyl-1,2,4-thiadiazol-5-yl)-5,6,7,8-tetrahydroimidazo[1,5-a]pyrazin-1-yl]-5-oxopyrrolidin-3-ylacetate]
84.5	COc1cc(-c2nc(-c3nc(C)ns3)n3c2[C@@H](C)N(C(=O)c2ccc(F)cc2)CC3)ccn1 [Compound 080, (R)-(1-(2-methoxypyridin-4-yl)-8-methyl-3-(3-methyl-1,2,4-thiadiazol-5-yl)-5,6-dihydroimidazo[1,5-a]pyrazin-7 (8H)-yl)(4-fluorophenyl)methanone]
